From patent US7629367B2, “N-(2-benzyl)-2-phenylbutanamides as androgen receptor modulators” (Merck & Co., Inc., priority 2004, dated 2009)

Biological target: T1, androgen receptor (Homo sapiens, UniProt P10275)
T1 sequence (P10275 1-920): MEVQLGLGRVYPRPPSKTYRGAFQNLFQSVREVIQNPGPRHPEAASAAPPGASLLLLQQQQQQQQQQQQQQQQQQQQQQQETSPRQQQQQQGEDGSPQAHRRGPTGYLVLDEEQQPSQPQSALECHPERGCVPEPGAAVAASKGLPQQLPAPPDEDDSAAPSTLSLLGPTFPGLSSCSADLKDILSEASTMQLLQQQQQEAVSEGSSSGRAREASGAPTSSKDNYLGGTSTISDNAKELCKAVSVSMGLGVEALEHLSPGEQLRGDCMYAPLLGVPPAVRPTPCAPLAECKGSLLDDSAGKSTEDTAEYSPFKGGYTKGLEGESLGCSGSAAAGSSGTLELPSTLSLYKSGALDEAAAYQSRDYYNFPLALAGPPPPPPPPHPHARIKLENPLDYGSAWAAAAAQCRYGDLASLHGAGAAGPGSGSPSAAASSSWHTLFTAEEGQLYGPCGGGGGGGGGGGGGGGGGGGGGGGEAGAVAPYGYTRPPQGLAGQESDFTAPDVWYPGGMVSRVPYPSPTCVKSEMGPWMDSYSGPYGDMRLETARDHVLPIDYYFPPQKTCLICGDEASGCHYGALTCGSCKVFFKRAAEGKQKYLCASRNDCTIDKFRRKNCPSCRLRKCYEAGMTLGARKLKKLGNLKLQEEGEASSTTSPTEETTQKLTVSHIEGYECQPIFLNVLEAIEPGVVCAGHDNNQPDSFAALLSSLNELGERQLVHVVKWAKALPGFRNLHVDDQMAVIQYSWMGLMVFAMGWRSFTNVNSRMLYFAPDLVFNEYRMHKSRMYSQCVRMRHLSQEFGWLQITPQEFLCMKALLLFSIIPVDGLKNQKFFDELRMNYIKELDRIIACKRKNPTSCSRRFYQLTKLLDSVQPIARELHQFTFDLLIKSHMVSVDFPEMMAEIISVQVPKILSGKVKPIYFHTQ
Assay: biochemical assays (not further specified)
Settings: compound coupled from the second-peak acid (RT=21 min)

activity in the biochemical assays: active
Compound: Cc1cnc(F)c(CNC(=O)C(O)(c2ccccc2)C(F)(F)C(F)(F)F)c1 (single isomer, unassigned) [Example 3-2, (2R or 2S)-3,3,4,4,4-pentafluoro-N-[(2-fluoro-5-methylpyridin-3-yl)methyl]-2-hydroxy-2-phenylbutanamide]
